Active and inactive are the calls of the source.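 Rule for the calls: active = compounds inhibiting PP5 with an IC50 below 50 µM; inactive = IC50 of 50 µM or more.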

For the experiment, the target named is Serine/threonine-protein phosphatase 5 (Homo sapiens) (UniProt P53041). Put plainly: PP5 inhibition of phosphorylase dephosphorylation, late-stage follow-up, selectivity assay for PP1 inhibitor project, biochemical, radiolabel, glycogen phosphorylase substrate, set 2 (AID 652225). Conditions: purified PP5c, 32P-glycogen phosphorylase dephosphorylation, scintillation.
Serine/threonine-protein phosphatase 5 (Homo sapiens), sequence (P53041 whole entry, looked up): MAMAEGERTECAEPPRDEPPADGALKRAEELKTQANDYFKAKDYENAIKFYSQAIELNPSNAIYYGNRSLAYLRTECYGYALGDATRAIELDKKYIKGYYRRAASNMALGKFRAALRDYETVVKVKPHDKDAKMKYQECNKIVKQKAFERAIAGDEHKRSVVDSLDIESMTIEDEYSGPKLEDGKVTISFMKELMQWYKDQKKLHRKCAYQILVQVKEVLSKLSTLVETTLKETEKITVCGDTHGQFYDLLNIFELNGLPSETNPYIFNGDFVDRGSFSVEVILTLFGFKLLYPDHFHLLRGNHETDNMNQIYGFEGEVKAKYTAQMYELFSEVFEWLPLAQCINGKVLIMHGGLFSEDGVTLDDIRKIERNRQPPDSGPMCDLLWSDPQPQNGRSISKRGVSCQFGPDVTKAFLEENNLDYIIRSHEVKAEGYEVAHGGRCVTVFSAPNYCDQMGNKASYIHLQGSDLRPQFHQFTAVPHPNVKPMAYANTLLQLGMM

As for `CN1CCN(C(c2ccccn2)c2cc(Cl)c3cccnc3c2O)CC1` (stereo not given), the IC50 is > 50 µM (inactive).

As for `N#Cc1c(-c2ccc(Cl)cc2)cc(-c2cccs2)nc1SCC(=O)O`, the IC50 is > 50 µM (inactive). As for `CCn1c2ccccc2c2cc(NC(=O)COC(=O)c3ccc(NC(=O)CC#N)cc3)ccc21`, the figure is > 50 µM (inactive). `COc1ccc(NC(=O)C2C3CCC(O3)C2C(=O)O)c(OC)c1` (stereo not given): the IC50 is 4.16 µM. As for `CCOC(=O)c1sc2nc3c(SCC(=O)O)cc(C(=O)c4cc(F)ccc4O)cn3c(=O)c2c1C`, the IC50 is > 50 µM (inactive).

As usually defined, the IC50 is the concentration that gives 50% inhibition.
